Data: ChEMBL document CHEMBL1142160, “Overexpression and initial characterization of the chromosomal aminoglycoside 3'-O-phosphotransferase APH(3')-IIb from Pseudomonas aeruginosa” (2007)
Converted amounts (≈) assume the structure as drawn.

Tests used:
Format in all cases: functional
Escherichia coli [1] = assay: Antibacterial activity against Escherichia coli BL21(DE3) expressing Pseudomonas aeruginosa APH(3')-2b
Escherichia coli [2] = assay: Antibacterial activity against Escherichia coli BL21(DE3)
Pseudomonas aeruginosa = assay: Antibacterial activity against Pseudomonas aeruginosa ATCC 27853

Row | Structure (SMILES) | MIC (Escherichia coli [1]) [mg/L] | MIC (Escherichia coli [2]) [mg/L] | MIC (Pseudomonas aeruginosa) [mg/L]
1 | NCC[C@H](O)C(=O)N[C@@H]1C[C@H](N)[C@@H](O[C@H]2O[C@H](CN)[C@@H](O)[C@H](O)[C@H]2O)[C@H](O)[C@H]1O[C@H]1O[C@H](CO)[C@@H](O)[C@H](N)[C@H]1O [AMIKACIN] | 12 (≈ 20.5 µM) | 12 (≈ 20.5 µM) | 3 (≈ 5.12 µM)
2 | NC[C@@H]1O[C@H](O[C@H]2[C@@H](O)[C@H](O[C@@H]3[C@@H](O)[C@H](N)C[C@H](N)[C@H]3O[C@H]3O[C@H](CN)[C@@H](O)[C@H](O)[C@H]3N)O[C@@H]2CO)[C@H](N)[C@@H](O)[C@@H]1O [FRAMYCETIN] | 96 (≈ 156 µM) | 12 (≈ 19.5 µM) | 128 (≈ 208 µM)
3 | NC[C@@H]1O[C@@H](O[C@H]2[C@H](O)[C@@H](O[C@H]3O[C@H](CO)[C@@H](O)[C@H](N)[C@H]3O)[C@H](N)C[C@@H]2N)[C@@H](O)[C@H](O)[C@H]1O [KANAMYCIN A] | 768 (≈ 1590 µM) | 12 (≈ 24.8 µM) | 256 (≈ 528 µM)
4 | NC[C@H]1O[C@H](O[C@H]2[C@H](O)[C@@H](O)[C@H](N)C[C@@H]2N)[C@H](N)[C@@H](O)[C@@H]1O [NEAMINE] | 1540 (≈ 4760 µM) | 96 (≈ 298 µM) | 512 (≈ 1590 µM)
5 | NC[C@H]1O[C@H](O[C@H]2[C@H](O[C@@H]3O[C@H](CO)[C@@H](O)[C@H]3O)[C@@H](O)[C@H](N)C[C@@H]2N)[C@H](N)[C@@H](O)[C@@H]1O [RIBOSTAMYCIN] | 768 (≈ 1690 µM) | 12 (≈ 26.4 µM) | 384 (≈ 845 µM)
6 | NC[C@H]1O[C@H](O[C@H]2[C@H](O)[C@@H](O[C@H]3O[C@H](CO)[C@@H](O)[C@H](N)[C@H]3O)[C@H](N)C[C@@H]2N)[C@H](N)C[C@@H]1O [TOBRAMYCIN] | 6 (≈ 12.8 µM) | 6 (≈ 12.8 µM) | 1 (≈ 2.14 µM)
